{"source": "PubChem BioAssay (NCI)", "test_in_all_cases": "NCI anticancer screen, dose series, 48 h", "key": {"MALME-3M melanoma": {"system": "MALME-3M melanoma"}, "OVCAR-5 ovarian": {"system": "OVCAR-5 ovarian"}, "MDA-MB-435": {"system": "MDA-MB-435"}, "MDA-N": {"system": "MDA-N"}, "SK-MEL-5 melanoma": {"system": "SK-MEL-5 melanoma"}, "SK-MEL-2 melanoma": {"system": "SK-MEL-2 melanoma"}, "HCC-2998 colon": {"system": "HCC-2998 colon"}, "UO-31 renal": {"system": "UO-31 renal"}, "HOP-92 NSCLC": {"system": "HOP-92 NSCLC"}, "OVCAR-3 ovarian": {"system": "OVCAR-3 ovarian"}, "LOX IMVI melanoma": {"system": "LOX IMVI melanoma"}, "PC-3 prostate": {"system": "PC-3 prostate"}, "SR leukemia": {"system": "SR leukemia"}, "EKVX NSCLC": {"system": "EKVX NSCLC"}, "HOP-62 NSCLC": {"system": "HOP-62 NSCLC"}, "SF-268 CNS": {"system": "SF-268 CNS"}, "786-0 renal": {"system": "786-0 renal"}, "ACHN renal": {"system": "ACHN renal"}, "HL-60(TB) leukemia": {"system": "HL-60(TB) leukemia"}, "NCI/ADR-RES ovarian": {"system": "NCI/ADR-RES ovarian"}, "COLO 205 colon": {"system": "COLO 205 colon"}, "CAKI-1 renal": {"system": "CAKI-1 renal"}, "TK-10 renal": {"system": "TK-10 renal"}, "K-562 leukemia": {"system": "K-562 leukemia"}, "IGROV1 ovarian": {"system": "IGROV1 ovarian"}, "A549 NSCLC": {"system": "A549 NSCLC"}, "NCI-H522 lung": {"system": "NCI-H522 lung"}, "MDA-MB-231 breast": {"system": "MDA-MB-231 breast"}, "UACC-257 melanoma": {"system": "UACC-257 melanoma"}, "SK-MEL-28 melanoma": {"system": "SK-MEL-28 melanoma"}, "SW-620 colon": {"system": "SW-620 colon"}, "HCT-15 colon": {"system": "HCT-15 colon"}, "M14 melanoma": {"system": "M14 melanoma"}, "UACC-62 melanoma": {"system": "UACC-62 melanoma"}, "OVCAR-8 ovarian": {"system": "OVCAR-8 ovarian"}, "SF-539 CNS": {"system": "SF-539 CNS"}, "OVCAR-4 ovarian": {"system": "OVCAR-4 ovarian"}, "NCI-H460 lung": {"system": "NCI-H460 lung"}, "SF-295 CNS": {"system": "SF-295 CNS"}, "DU-145 prostate": {"system": "DU-145 prostate"}, "HT29 colon": {"system": "HT29 colon"}, "A498 renal": {"system": "A498 renal"}, "HCT-116 colon": {"system": "HCT-116 colon"}, "CCRF-CEM leukemia": {"system": "CCRF-CEM leukemia"}, "SNB-19 CNS": {"system": "SNB-19 CNS"}, "MCF7 breast": {"system": "MCF7 breast"}, "NCI-H23 lung": {"system": "NCI-H23 lung"}, "SN12C renal": {"system": "SN12C renal"}, "BT-549 breast": {"system": "BT-549 breast"}, "U251 CNS": {"system": "U251 CNS"}, "SK-OV-3 ovarian": {"system": "SK-OV-3 ovarian"}, "SNB-75 CNS": {"system": "SNB-75 CNS"}}, "note": "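Five compound concentrations were applied to cells in 96-well plates for 48 hours; endpoints were derived by simple linear interpolation of the resulting dose-response curve. The concentration for full growth arrest is given as TGI.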"}
{"smiles": "NC(=S)C1=C(N)Oc2c(c(=O)oc3ccccc23)C1c1ccc(Br)cc1", "note": "(configuration not stated)", "values": [{"measurement": "TGI", "setting": "MALME-3M melanoma", "value": "> 100", "unit": "µM"}, {"measurement": "TGI", "setting": "OVCAR-5 ovarian", "value": "> 100", "unit": "µM"}, {"measurement": "TGI", "setting": "MDA-MB-435", "value": "> 100", "unit": "µM"}, {"measurement": "TGI", "setting": "MDA-N", "value": "> 100", "unit": "µM"}, {"measurement": "TGI", "setting": "SK-MEL-5 melanoma", "value": "> 100", "unit": "µM"}, {"measurement": "TGI", "setting": "SK-MEL-2 melanoma", "value": "> 100", "unit": "µM"}, {"measurement": "TGI", "setting": "HCC-2998 colon", "value": "> 100", "unit": "µM"}, {"measurement": "TGI", "setting": "UO-31 renal", "value": "> 100", "unit": "µM"}, {"measurement": "TGI", "setting": "HOP-92 NSCLC", "value": "> 100", "unit": "µM"}, {"measurement": "TGI", "setting": "OVCAR-3 ovarian", "value": "> 100", "unit": "µM"}, {"measurement": "TGI", "setting": "LOX IMVI melanoma", "value": "> 100", "unit": "µM"}, {"measurement": "TGI", "setting": "PC-3 prostate", "value": "> 100", "unit": "µM"}, {"measurement": "TGI", "setting": "SR leukemia", "value": 63.2, "unit": "µM"}, {"measurement": "TGI", "setting": "EKVX NSCLC", "value": "> 100", "unit": "µM"}, {"measurement": "TGI", "setting": "HOP-62 NSCLC", "value": "> 100", "unit": "µM"}, {"measurement": "TGI", "setting": "SF-268 CNS", "value": "> 100", "unit": "µM"}, {"measurement": "TGI", "setting": "786-0 renal", "value": "> 100", "unit": "µM"}, {"measurement": "TGI", "setting": "ACHN renal", "value": "> 100", "unit": "µM"}, {"measurement": "TGI", "setting": "HL-60(TB) leukemia", "value": "> 100", "unit": "µM"}, {"measurement": "TGI", "setting": "NCI/ADR-RES ovarian", "value": "> 100", "unit": "µM"}, {"measurement": "TGI", "setting": "COLO 205 colon", "value": "> 100", "unit": "µM"}, {"measurement": "TGI", "setting": "CAKI-1 renal", "value": "> 100", "unit": "µM"}, {"measurement": "TGI", "setting": "TK-10 renal", "value": "> 100", "unit": "µM"}, {"measurement": "TGI", "setting": "K-562 leukemia", "value": "> 100", "unit": "µM"}, {"measurement": "TGI", "setting": "IGROV1 ovarian", "value": "> 100", "unit": "µM"}, {"measurement": "TGI", "setting": "A549 NSCLC", "value": "> 100", "unit": "µM"}, {"measurement": "TGI", "setting": "NCI-H522 lung", "value": "> 100", "unit": "µM"}, {"measurement": "TGI", "setting": "MDA-MB-231 breast", "value": "> 100", "unit": "µM"}, {"measurement": "TGI", "setting": "UACC-257 melanoma", "value": "> 100", "unit": "µM"}, {"measurement": "TGI", "setting": "SK-MEL-28 melanoma", "value": "> 100", "unit": "µM"}, {"measurement": "TGI", "setting": "SW-620 colon", "value": "> 100", "unit": "µM"}, {"measurement": "TGI", "setting": "HCT-15 colon", "value": "> 100", "unit": "µM"}, {"measurement": "TGI", "setting": "M14 melanoma", "value": "> 100", "unit": "µM"}, {"measurement": "TGI", "setting": "UACC-62 melanoma", "value": "> 100", "unit": "µM"}, {"measurement": "TGI", "setting": "OVCAR-8 ovarian", "value": "> 100", "unit": "µM"}, {"measurement": "TGI", "setting": "SF-539 CNS", "value": "> 100", "unit": "µM"}, {"measurement": "TGI", "setting": "OVCAR-4 ovarian", "value": "> 100", "unit": "µM"}, {"measurement": "TGI", "setting": "NCI-H460 lung", "value": "> 100", "unit": "µM"}, {"measurement": "TGI", "setting": "SF-295 CNS", "value": "> 100", "unit": "µM"}, {"measurement": "TGI", "setting": "DU-145 prostate", "value": "> 100", "unit": "µM"}, {"measurement": "TGI", "setting": "HT29 colon", "value": "> 100", "unit": "µM"}, {"measurement": "TGI", "setting": "A498 renal", "value": "> 100", "unit": "µM"}, {"measurement": "TGI", "setting": "HCT-116 colon", "value": "> 100", "unit": "µM"}, {"measurement": "TGI", "setting": "CCRF-CEM leukemia", "value": "> 100", "unit": "µM"}, {"measurement": "TGI", "setting": "SNB-19 CNS", "value": "> 100", "unit": "µM"}, {"measurement": "TGI", "setting": "MCF7 breast", "value": "> 100", "unit": "µM"}, {"measurement": "TGI", "setting": "NCI-H23 lung", "value": "> 100", "unit": "µM"}, {"measurement": "TGI", "setting": "SN12C renal", "value": "> 100", "unit": "µM"}, {"measurement": "TGI", "setting": "BT-549 breast", "value": "> 100", "unit": "µM"}, {"measurement": "TGI", "setting": "U251 CNS", "value": "> 100", "unit": "µM"}, {"measurement": "TGI", "setting": "SK-OV-3 ovarian", "value": "> 100", "unit": "µM"}, {"measurement": "TGI", "setting": "SNB-75 CNS", "value": "> 100", "unit": "µM"}]}
